# Measured values: ChEMBL document CHEMBL5634138, “Discovery of a novel BLT2 antagonist for the treatment of inflammatory airway diseases” (Eur J Med Chem, 2023)
# Activity calls are given as the source filed them. The rule behind the calls is not given here.
# How the values were obtained:
# CHO [1] = assay: (§1) Cytotoxicity against CHO cells assessed as inhibition of cell growth at 10 uM incubated overnight by MTS assay reltive to control; format: toxicity, cell-based, Cricetulus griseus; details: chinese hamster, cho, 10 µM
# Mus musculus [2] = assay: Anti-asthmatic activity against OVA/LPS induced BALB/c mouse model assessed as reduction in bronchial hyper-response at 10 mg/kg, ip for one hr before every challenge on day 14 to 16 and measured after 17 days relative to control; format: functional; set-up: scale not given: the % may be the effect or the level left; details: time 17 day
# Mus musculus [3] = assay: Anti-asthmatic activity against OVA/LPS induced BALB/c mouse model assessed as decrease in bronchoalveolar lavage fluid (BALF) IL-4 level at 10 mg/kg, ip by ELISA method relative to control; format: functional; set-up: scale not given: the % may be the effect or the level left
# Mus musculus [4] = assay: Anti-asthmatic activity against OVA/LPS induced BALB/c mouse model assessed as decrease in bronchoalveolar lavage fluid (BALF) IL-5 level at 10 mg/kg, ip by ELISA method relative to control; format: functional; set-up: scale not given: the % may be the effect or the level left
# Mus musculus [5] = assay: Anti-asthmatic activity against OVA/LPS induced BALB/c mouse model assessed as decrease in bronchoalveolar lavage fluid (BALF) IL-13 level at 10 mg/kg, ip by ELISA method relative to control; format: functional; set-up: scale not given: the % may be the effect or the level left
# [6] = as §1; format: toxicity, cell-based, Cricetulus griseus; details: chinese hamster, CHO cells, read-out: Activity
# [7] = target: T1, Leukotriene B4 receptor 2 (Mus musculus) (UniProt Q9JJL9); assay: Displacement of 3[H]LTB4 from mouse BLT2 by competitive binding assay; details: filed as agonist
# T1 sequence (whole entry): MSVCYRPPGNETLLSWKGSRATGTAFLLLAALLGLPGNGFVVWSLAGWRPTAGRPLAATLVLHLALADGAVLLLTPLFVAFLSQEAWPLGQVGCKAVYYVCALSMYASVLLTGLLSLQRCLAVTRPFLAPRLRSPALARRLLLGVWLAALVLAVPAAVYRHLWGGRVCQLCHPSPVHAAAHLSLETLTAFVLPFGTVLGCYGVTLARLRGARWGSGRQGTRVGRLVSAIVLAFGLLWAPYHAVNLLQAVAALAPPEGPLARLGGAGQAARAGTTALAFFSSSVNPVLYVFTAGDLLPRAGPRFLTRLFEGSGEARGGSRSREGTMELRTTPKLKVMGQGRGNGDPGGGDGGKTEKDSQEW
# [8] = target: T2, Leukotriene B4 receptor 2 (Mus musculus, UniProt Q9JJL9); assay: Agonist activity at mouse BLT2 expressed in CHO cells assessed as induction of calcium accumulation; format: functional, cell-based
# T2 sequence (Q9JJL9 whole entry): T1 sequence (whole entry)
# [9] = Solubility of the compound in deionized water; format: physicochemical; details: buffer
# [10] = Metabolic stability in human liver microsomes assessed as parent compound remaining measured after 30 mins in absence of NADPH; format: ADME, Microsome; details: read-out: Stability
# [11] = Metabolic stability in human liver microsomes assessed as parent compound remaining measured after 30 mins in presence of NADPH; format: ADME, Microsome; details: read-out: Stability
# [12] = Metabolic stability in human liver microsomes assessed as parent compound remaining measured after 30 mins in absence of […]; format: ADME, Microsome; details: read-out: Stability
# [13] = Metabolic stability in human liver microsomes assessed as parent compound remaining measured after 30 mins in presence of […]; format: ADME, Microsome; details: read-out: Stability
# [14] = Metabolic stability in mouse liver microsomes assessed as parent compound remaining measured after 30 mins in absence of NADPH; format: ADME, Microsome; details: read-out: Stability
# [15] = Metabolic stability in mouse liver microsomes assessed as parent compound remaining measured after 30 mins in presence of NADPH; format: ADME, Microsome; details: read-out: Stability
# [16] = Metabolic stability in mouse liver microsomes assessed as parent compound remaining measured after 30 mins in absence of […]; format: ADME, Microsome; details: read-out: Stability
# [17] = Metabolic stability in mouse liver microsomes assessed as parent compound remaining measured after 30 mins in presence of […]; format: ADME, Microsome; details: read-out: Stability
# [18] = Half life in rat at 2 mg/kg, iv; format: ADME, organism-based; details: in vivo
# [19] = Clearance in rat at 2 mg/kg, iv; format: ADME, organism-based; details: in vivo
# [20] = Apparent volume of distribution in rat at 2 mg/kg, iv; format: ADME, organism-based; details: in vivo, read-out: Vd(app)
# [21] = AUC infinity in rat at 2 mg/kg, iv; format: ADME, organism-based; details: in vivo
# [22] = AUC infinity in rat at 20 mg/kg, po administered as solution; format: ADME, organism-based; details: in vivo
# [23] = Cmax in rat at 20 mg/kg, po administered as solution; format: ADME, organism-based; details: in vivo
# [24] = Tmax in rat at 20 mg/kg, po administered as solution; format: ADME, organism-based; details: in vivo
# [25] = Oral bioavailability in rat at 20 mg/kg administered as solution; format: ADME, organism-based; details: in vivo
# [26] = AUC infinity in rat at 20 mg/kg, po administered as suspension; format: ADME, organism-based; details: in vivo
# [27] = Cmax in rat at 20 mg/kg, po administered as suspension; format: ADME, organism-based; details: in vivo
# [28] = Tmax in rat at 20 mg/kg, po administered as suspension; format: ADME, organism-based; details: in vivo
# [29] = Oral bioavailability in rat at 20 mg/kg administered as suspension; format: ADME, organism-based; details: in vivo
# Mus musculus [30] = assay: Anti-asthmatic activity against OVA/LPS induced BALB/c mouse model assessed as decrease in bronchoalveolar lavage fluid (BALF) IL-4 level at 20 mg/kg, ip by ELISA method relative to control; format: functional; set-up: scale not given: the % may be the effect or the level left
# Mus musculus [31] = assay: Anti-asthmatic activity against OVA/LPS induced BALB/c mouse model assessed as decrease in bronchoalveolar lavage fluid (BALF) IL-5 level at 20 mg/kg, ip by ELISA method relative to control; format: functional; set-up: scale not given: the % may be the effect or the level left
# Mus musculus [32] = assay: Anti-asthmatic activity against OVA/LPS induced BALB/c mouse model assessed as decrease in bronchoalveolar lavage fluid (BALF) IL-13 level at 20 mg/kg, ip by ELISA method relative to control; format: functional; set-up: scale not given: the % may be the effect or the level left
# [33] = target: Leukotriene B4 receptor 1 (Homo sapiens) (UniProt Q15722); assay: Antagonist activity at human BLT1 expressed in CHO cells assessed as inhibition of LTB4 induced cell migration at 10 uM measured after 3 hrs by chemotaxis assay; format: cell-based
# CHO [34] = assay: Inhibition of Akt phosphorylation (unknown origin) expressed in CHO cells harbouring BLT2 by Western blot analysis; format: cell-based; details: Homo sapiens
# [35] = target: T3, Leukotriene B4 receptor 2 (Homo sapiens, UniProt Q9NPC1); assay: Displacement of 3H-LTB4 from human BLT2 expressed in CHO cell membrane assessed as inhibition constant incubated for 60 mins by liquid scintillation counter analysis
# T3 sequence (Q9NPC1 whole entry): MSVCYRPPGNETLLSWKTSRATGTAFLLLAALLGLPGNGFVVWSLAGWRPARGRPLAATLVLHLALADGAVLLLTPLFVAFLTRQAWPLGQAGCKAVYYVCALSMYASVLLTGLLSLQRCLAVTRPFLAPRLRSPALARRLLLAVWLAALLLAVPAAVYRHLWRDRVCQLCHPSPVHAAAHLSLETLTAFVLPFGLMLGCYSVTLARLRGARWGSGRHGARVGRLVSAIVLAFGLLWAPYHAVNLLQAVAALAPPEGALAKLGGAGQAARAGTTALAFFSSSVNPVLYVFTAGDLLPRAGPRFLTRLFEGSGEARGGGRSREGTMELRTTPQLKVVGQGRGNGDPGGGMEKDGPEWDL
# [36] = target: Leukotriene B4 receptor 1 (Homo sapiens) (UniProt Q15722); assay: Antagonist activity at human BLT1 expressed in CHO cells assessed as inhibition of LTB4 induced cell migration at 10 uM measured after 3 hrs by chemotaxis assay relative to control; format: cell-based; set-up: scale not given: the % may be the effect or the level left; details: filed as antagonist
# CHO [37] = assay: Inhibition of Akt phosphorylation (unknown origin) expressed in CHO cells harbouring BLT1 by Western blot analysis; format: cell-based; details: Homo sapiens
# Chain of Leukotriene B4 receptor 1 (Homo sapiens) (Q15722 whole entry): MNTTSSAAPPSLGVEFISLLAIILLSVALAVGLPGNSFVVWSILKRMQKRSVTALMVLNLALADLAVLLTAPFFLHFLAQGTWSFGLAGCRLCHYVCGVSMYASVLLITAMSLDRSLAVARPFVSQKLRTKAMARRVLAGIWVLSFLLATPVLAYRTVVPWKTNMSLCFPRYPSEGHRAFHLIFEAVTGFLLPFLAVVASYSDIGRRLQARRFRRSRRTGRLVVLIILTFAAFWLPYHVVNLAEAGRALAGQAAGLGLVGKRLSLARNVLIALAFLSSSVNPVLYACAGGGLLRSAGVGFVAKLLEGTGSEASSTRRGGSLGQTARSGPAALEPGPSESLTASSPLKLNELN
smiles,measurement,setting,value
CCCCC(=O)N(Cc1ccc(-c2ccc(OC)cc2)cc1)c1cccc(C(F)(F)F)c1,Activity,CHO [1],Non-Toxic
CCCCC(=O)N(Cc1ccc(-c2ccc(O)cc2)cc1)c1ccccc1,Activity,CHO [1],Non-Toxic
CCc1cc(C(C)=O)c(O)cc1OCCCCCC(C)(C)c1nn[nH]n1 [LY-255283],Activity,Mus musculus [2],69%
same,Activity,Mus musculus [3],38%
same,Activity,Mus musculus [4],48%
same,Activity,Mus musculus [5],38%
CCCCC(=O)N(Cc1ccc(-c2ccc(O)cc2)cc1)c1cccc(C)c1,inhibition at 10 µM,[6],24%
CCCCC(=O)N(Cc1ccc(-c2ccc(C(=O)O)cc2)cc1)c1ccccc1F,Activity,CHO [1],Non-Toxic
CCCCC(=O)N(Cc1ccc(-c2ccc(OC)cc2)cc1)c1cccc(F)c1,inhibition at 10 µM,[6],7%
CCCCC(=O)N(Cc1ccc(-c2ccc(OCC(=O)O)cc2)cc1)c1cccc(C(F)(F)F)c1,Activity,CHO [1],Non-Toxic
CCCCC(=O)N(Cc1ccc(-c2ccc(C(=O)O)cc2)cc1)c1ccccc1,Activity,CHO [1],Non-Toxic
CCCCC(=O)N(Cc1ccc(-c2ccccc2C(=O)O)cc1)c1ccccc1,Activity,[7],5 nM
same,EC50,[8],20 nM
CCCCC(=O)N(Cc1ccc(-c2cccc(C(=O)O)c2)cc1)c1ccccc1,Activity,CHO [1],Non-Toxic
CCCCC(=O)N(Cc1ccc(-c2ccc(OCCC(=O)O)cc2)cc1)c1cccc(F)c1,Activity,CHO [1],Non-Toxic
CCCCC(=O)N(Cc1ccc(-c2ccc(C(=O)N3CCN(C)CC3)cc2)cc1)c1ccccc1,Activity,CHO [1],Non-Toxic
CCCCC(=O)N(Cc1ccc(-c2ccc(N)cc2)cc1)c1ccccc1,Activity,CHO [1],Non-Toxic
CCCCC(=O)N(Cc1ccc(-c2ccc(OCC(=O)O)cc2)cc1)c1cccc(F)c1,solubility,[9],0.033 µg/mL
same,Activity,CHO [1],Non-Toxic
same,remaining at 0.5 h,[10],98.1%
same,remaining at 0.5 h,[11],74.5%
same,remaining at 0.5 h,[12],98.8%
same,remaining at 0.5 h,[13],94%
same,remaining at 0.5 h,[14],88.3%
same,remaining at 0.5 h,[15],67.8%
same,remaining at 0.5 h,[16],92.9%
same,remaining at 0.5 h,[17],91.7%
same,half-life,[18],1.4 h
same,clearance,[19],54 mL/min/kg
same,Vd,[20],4.2 L/kg
same,AUC(0-inf),[21],600 ng·h/mL
same,AUC(0-inf),[22],2200 ng·h/mL
same,Cmax,[23],1100 ng/mL
same,Tmax,[24],1 h
same,bioavailability,[25],35%
same,AUC(0-inf),[26],1500 ng·h/mL
same,Cmax,[27],700 ng/mL
same,Tmax,[28],0.9 h
same,bioavailability,[29],24%
same,Activity,Mus musculus [2],59%
same,Activity,Mus musculus [3],25%
same,Activity,Mus musculus [4],33%
same,Activity,Mus musculus [5],19%
same,Activity,Mus musculus [30],35%
same,Activity,Mus musculus [31],46%
same,Activity,Mus musculus [32],38%
same,Activity,[33],inactive
same,inhibition,CHO [34],Active
same,Ki,[35],132 nM
CCCCC(=O)N(Cc1ccc(-c2ccc(OC)cc2)cc1)c1cccc(C)c1,Activity,CHO [1],Non-Toxic
CCCCC(=O)N(Cc1ccc(-c2ccc(O)cc2)nc1)c1cccc(F)c1,Activity,CHO [1],Non-Toxic
CCCCC(=O)N(Cc1ccc(-c2ccc(C(=O)N3CCN(C(C)C)CC3)cc2)cc1)c1ccccc1,Activity,CHO [1],Non-Toxic
CCCCC(=O)N(Cc1ccc(-c2ccc(C(N)=O)cc2)cc1)c1ccccc1,Activity,CHO [1],Non-Toxic
CCCCC(=O)N(Cc1ccc(-c2ccc(OCC(=O)O)cc2)cc1)c1ccccc1,Activity,CHO [1],Non-Toxic
CCCCC(=O)N(Cc1ccc(-c2ccccc2CCC(=O)O)cc1)c1ccccc1,inhibition at 10 µM,[6],4%
CCCCC(=O)N(Cc1ccc(-c2ccc(OC)cc2)cc1)c1ccccc1,Activity,CHO [1],Non-Toxic
CCCCC(=O)N(Cc1ccc(-c2ccc(C(=O)NCC)cc2)cc1)c1ccccc1,Activity,CHO [1],Non-Toxic
CCCCC(=O)N(Cc1ccc(-c2ccc(C(=O)NCC(=O)O)cc2)cc1)c1ccccc1,Activity,CHO [1],Non-Toxic
CCCCC(=O)N(Cc1ccc(-c2ccc(O/C=C/C(=O)O)cc2)cc1)c1cccc(F)c1,Activity,CHO [1],Non-Toxic
CCCCC(=O)N(Cc1ccc(-c2ccc(O)nc2)cc1)c1cccc(F)c1,Activity,CHO [1],Non-Toxic
CCCCC(=O)N(Cc1ccc(-c2ccc(C(=O)O)cc2)cc1)c1ccc(F)cc1,Activity,CHO [1],Non-Toxic
CCCCC(=O)N(Cc1ccc(-c2ccc(C(=O)O)cc2)cc1)c1cccc(F)c1,Activity,CHO [1],Non-Toxic
CCCCC(=O)N(Cc1ccc(-c2ccc(OCC(=O)O)cc2)cc1)c1cccc(C)c1,Activity,CHO [1],Non-Toxic
CCCCC(=O)N(Cc1ccc(-c2ccc(O)cc2)cc1)c1cccc(F)c1,solubility,[9],< 0.02 µg/mL
same,Activity,CHO [1],Non-Toxic
same,remaining at 0.5 h,[10],96.8%
same,remaining at 0.5 h,[11],33.5%
same,remaining at 0.5 h,[12],98.8%
same,remaining at 0.5 h,[13],92.8%
same,remaining at 0.5 h,[14],84.2%
same,remaining at 0.5 h,[15],2.2%
same,remaining at 0.5 h,[16],90.4%
same,remaining at 0.5 h,[17],70.1%
same,Activity,[36],90%
same,inhibition,CHO [37],Active
same,inhibition,CHO [34],Active
CCCCC(=O)N(Cc1ccc(-c2ccccc2CC(=O)O)cc1)c1ccccc1,inhibition at 10 µM,[6],25%
CCCCC(=O)N(Cc1ccc(-c2ccc(O)cc2)cc1)c1cccc(C(F)(F)F)c1,inhibition at 10 µM,[6],5%
